Test results as given in US4659726A, “Novel 4,5-Bis (4-methoxyphenyl)-2-(pyrrol-2-yl) thiazoles and pharmaceutical composition containing the same” (Kanebo, Ltd., priority 1984, dated 1987).
Counter-ions that a name gives are not always drawn. Like-named read-outs stand apart in the source and are kept apart here.

Columns and labels:
[1] = tested on: Platelet aggregation (arachidonate); experiment: Platelet aggregation inhibitory activity, ex vivo after oral administration to guinea pigs, sodium arachidonate as aggregating agent; type: in vivo, Hartley strain male guinea pigs; details: Cavia porcellus, read-out: Platelet aggregation inhibitory activity Arachidonate ED50
Protocol: (§1) Hartley strain male guinea pigs (weighing 300-350 g, one group: three animals) were fasted overnight, and to the animals were orally administered a solution or suspension of the test compounds in corn oil-10% arabic gum. […] The citrated blood thus obtained was centrifuged at 1,700 rpm for 10 minutes, and a platelet-rich plasma (PRP) was obtained from the supernatant. After isolating PRP, the remaining blood was further centrifuged at 3,000 rpm for 10 minutes, and a platelet-poor plasma (PPP) was obtained from the supernatant.
(§2) The PRP (450 μl) thus obtained was incubated at 37° C. for 3 minutes, and thereto was added 1.0 mM sodium arachidonate (50 μl) as an aggregating agent, and then the platelet aggregation thereof was measured with Platelet Aggregation Profiler® (Model PAP-3, manufactured by Bio Data Corp.) while using the PPP obtained above as a blank. As a control, as to animals to which no test compound was administered, the platelet aggregation rate was measured likewise.
(§3) The platelet aggregation inhibitory rate was calculated by the following equation. [formula]

[2] = tested on: Platelet aggregation (collagen); experiment: Platelet aggregation inhibitory activity, ex vivo after oral administration to guinea pigs, collagen as aggregating agent; type: in vivo, Hartley strain male guinea pigs; details: Cavia porcellus, read-out: Platelet aggregation inhibitory activity Collagen ED50
Protocol: as §1, §2, §3
Moreover, the above method was repeated except that 100 μg/ml collagen suspension (50 μl) was used as an aggregating agent instead of sodium arachidonate.

in vivo = details: mouse, oral, ddy male mice, deaths counted at 10 days, Weil method, read-out: Acute toxicity LD50
Source text: ddy male mice (weighing 18-23 g, one group: 5 animals) were fasted overnight, and thereto was orally administered a suspension of the test compounds in 1% arabic gum solution.

[3] = oral, guinea pig, blood collected after 3 hours, 1.0 mM sodium arachidonate (50 μl), 50% inhibitory rate
[4] = oral, guinea pig, blood collected after 3 hours, 100 μg/ml collagen suspension (50 μl), 50% inhibitory rate

Compound | ED50 ([1]; po, 3 h) [mg/kg] | ED50 ([2]; po, 3 h) [mg/kg] | LD50 at 240 h (in vivo) [mg/kg] | ED50 [1, 3] [mg/kg] | ED50 [2, 4] [mg/kg]
CC(=O)Oc1ccccc1C(=O)O [Aspirin, reference compound] | 38.2 | 58.9 | 1060 |  | 
COc1ccc(-c2nc(C(F)(F)F)sc2-c2ccc(OC)cc2)cc1 [Compd. A, 4,5-bis(4-methoxyphenyl)-2-trifluoromethylthiazole, reference compound] |  |  | > 3000 | 0.54 | 1.29
COc1ccc(-c2nc(-c3ccc(F)cc3)sc2-c2ccc(OC)cc2)cc1 [Compd. B, 4,5-bis(4-methoxyphenyl)-2-(4-fluorophenyl)thiazole, reference compound] |  |  | > 3000 | 1.24 | 1.2
COc1ccc(-c2nc(-c3cccn3C)[nH]c2-c2ccc(OC)cc2)cc1 [Compd. C, 4,5-bis(4-methoxyphenyl)-2-(1-methylpyrrol-2-yl)imidazole, reference compound] |  |  | > 3000 | 1.21 | 2.51
CCn1cccc1-c1nc(-c2ccc(OC)cc2)c(-c2ccc(OC)cc2)s1 [Ex. 1, 4,5-Bis(4-methoxyphenyl)-2-(1-ethylpyrrol-2-yl)-thiazole] |  |  | > 3000 | 0.47 | 0.91
COc1ccc(-c2nc(-c3cccn3C(C)C)sc2-c2ccc(OC)cc2)cc1 [Ex. 2, 4,5-Bis(4-methoxyphenyl)-2-(1-isopropylpyrrol-2-yl)thiazole] |  |  | > 3000 | 0.29 | 0.63
CCCn1cccc1-c1nc(-c2ccc(OC)cc2)c(-c2ccc(OC)cc2)s1 [Ex. 3, 4,5-Bis(4-methoxyphenyl)-2-(1-n-propylpyrrol-2-yl)thiazole] |  |  | > 3000 | 0.32 | 0.52
COc1ccc(-c2nc(-c3cccn3CC(C)C)sc2-c2ccc(OC)cc2)cc1 [Ex. 4, 4,5-Bis(4-methoxyphenyl)-2-(1-isobutylpyrrol-2-yl)thiazole] |  |  | > 3000 | 0.41 | 0.78
C=CCn1cccc1-c1nc(-c2ccc(OC)cc2)c(-c2ccc(OC)cc2)s1 [Ex. 5, 4,5-Bis(4-methoxyphenyl)-2-(1-allylpyrrol-2-yl)-thiazole] |  |  | > 3000 | 0.4 | 0.55
C#CCn1cccc1-c1nc(-c2ccc(OC)cc2)c(-c2ccc(OC)cc2)s1 [Ex. 6, 4,5-Bis(4-methoxyphenyl)-2-(1-propargylpyrrol-2-yl)thiazole] |  |  | > 3000 | 0.22 | 0.92
COc1ccc(-c2nc(-c3cccn3CC(F)(F)F)sc2-c2ccc(OC)cc2)cc1 [Ex. 7, 4,5-Bis(4-methoxyphenyl)-2-[1-(2,2,2-trifluoroethyl)pyrrol-2-yl]thiazole] |  |  | > 3000 | 0.47 | 0.51
COC(=O)Cn1cccc1-c1nc(-c2ccc(OC)cc2)c(-c2ccc(OC)cc2)s1 [Ex. 13, methyl 2-[4,5-bis(4-methoxyphenyl)thiazol-2-yl]pyrrole-1-acetate] |  |  | > 3000 | 0.26 | 0.89
CCOC(=O)Cn1cccc1-c1nc(-c2ccc(OC)cc2)c(-c2ccc(OC)cc2)s1 [Ex. 14, ethyl 2-[4,5-bis(4-methoxyphenyl)thiazol-2-yl]pyrrole-1-acetate] |  |  | > 3000 | 0.088 | 0.19
CCCOC(=O)Cn1cccc1-c1nc(-c2ccc(OC)cc2)c(-c2ccc(OC)cc2)s1 [Ex. 15, n-Propyl 2-[4,5-bis(4-methoxyphenyl)thiazol-2-yl]-pyrrole-1-acetate] |  |  | > 3000 | 0.072 | 0.11
COc1ccc(-c2nc(-c3cccn3CC(=O)OC(C)C)sc2-c2ccc(OC)cc2)cc1 [Ex. 16, isopropyl 2-[4,5-bis(4-methoxyphenyl)thiazol-2-yl]pyrrole-1-acetate] |  |  | > 3000 | 0.061 | 0.11
CCCCOC(=O)Cn1cccc1-c1nc(-c2ccc(OC)cc2)c(-c2ccc(OC)cc2)s1 [Ex. 17, n-Butyl 2-[4,5-bis(4-methoxyphenyl)thiazol-2-yl]-pyrrole-1-acetate] |  |  | > 3000 | 0.15 | 0.19
COc1ccc(-c2nc(-c3cccn3CC(=O)OCC(C)C)sc2-c2ccc(OC)cc2)cc1 [Ex. 18, Isobutyl 2-[4,5-bis(4-methoxyphenyl)thiazol-2-yl]-pyrrole-1-acetate] |  |  | > 3000 | 0.072 | 0.12
CCC(C)OC(=O)Cn1cccc1-c1nc(-c2ccc(OC)cc2)c(-c2ccc(OC)cc2)s1 (centres unmarked) [Ex. 19, sec-Butyl 2-[4,5-bis(4-methoxyphenyl)thiazol-2-yl]pyrrole-1-acetate] |  |  | > 3000 | 0.12 | 0.11
CCCCCOC(=O)Cn1cccc1-c1nc(-c2ccc(OC)cc2)c(-c2ccc(OC)cc2)s1 [Ex. 20, n-pentyl 2-[4,5-bis(4-methoxyphenyl)thiazol-2-yl]pyrrole-1-acetate] |  |  | > 3000 | 0.28 | 0.49
COc1ccc(-c2nc(-c3cccn3CC(=O)OCCC(C)C)sc2-c2ccc(OC)cc2)cc1 [Ex. 21, Isopentyl 2-[4,5-bis(4-methoxyphenyl)thiazol-2-yl]pyrrole-1-acetate] |  |  | > 3000 | 0.12 | 0.22
COc1ccc(-c2nc(-c3cccn3CC(=O)OCC(C)(C)C)sc2-c2ccc(OC)cc2)cc1 [Ex. 22, Neopentyl 2-[4,5-bis(4-methoxyphenyl)thiazol-2-yl]pyrrole-1-acetate] |  |  | > 3000 | 0.11 | 0.4
CCC(C)COC(=O)Cn1cccc1-c1nc(-c2ccc(OC)cc2)c(-c2ccc(OC)cc2)s1 (centres unmarked) [Ex. 23, 2-methyl-1-butyl 2-[4,5-bis(4-methoxyphenyl)thiazol-2-yl]pyrrole-1-acetate] |  |  | > 3000 | 0.073 | 0.14
CCCC(C)OC(=O)Cn1cccc1-c1nc(-c2ccc(OC)cc2)c(-c2ccc(OC)cc2)s1 (centres unmarked) [Ex. 24, 2-pentyl 2-[4,5-bis(4-methoxyphenyl)thiazol-2-yl]pyrrole-1-acetate] |  |  | > 3000 | 0.12 | 0.22
CCC(CC)OC(=O)Cn1cccc1-c1nc(-c2ccc(OC)cc2)c(-c2ccc(OC)cc2)s1 [Ex. 25, 3-pentyl 2-[4,5-bis(4-methoxyphenyl)thiazol-2-yl]pyrrole-1-acetate] |  |  | > 3000 | 0.12 | 0.34
COc1ccc(-c2nc(-c3cccn3CC(=O)OC(C)C(C)C)sc2-c2ccc(OC)cc2)cc1 (centres unmarked) [Ex. 26, 3-methyl-2-butyl 2-[4,5-bis(4-methoxyphenyl)thiazol-2-yl]pyrrole-1-acetate] |  |  | > 3000 | 0.26 | 0.34
CCCCCCOC(=O)Cn1cccc1-c1nc(-c2ccc(OC)cc2)c(-c2ccc(OC)cc2)s1 [Ex. 27, n-hexyl 2-[4,5-bis(4-methoxyphenyl)thiazol-2-yl]pyrrole-1-acetate] |  |  | > 3000 | 0.21 | 0.22
CCCCCCCCOC(=O)Cn1cccc1-c1nc(-c2ccc(OC)cc2)c(-c2ccc(OC)cc2)s1 [Ex. 28, n-octyl 2-[4,5-bis(4-methoxyphenyl)thiazol-2-yl]pyrrole-1-acetate] |  |  | > 3000 | 0.39 | 0.44
C=CCOC(=O)Cn1cccc1-c1nc(-c2ccc(OC)cc2)c(-c2ccc(OC)cc2)s1 [Ex. 29, allyl 2-[4,5-bis(4-methoxyphenyl)thiazol-2-yl]pyrrole-1-acetate] |  |  | > 3000 | 0.047 | 0.11
Clc1ccccc1CN1CCc2sccc2C1 [Ticlopidine.HCl, Ticlopidine hydrochloride, reference compound] |  |  |  | > 300 | 300
